{"source": "PubChem BioAssay AID1963830", "about": "(Molecular Pharmacology Branch, DTP, NCI, 2024)", "test_system": "922993-354-T-J3-PDC complex spheroid viability", "experiment": "Anticancer human tumor 922993-354-T-J3-PDC patient-derived endometrial carcinoma cell line growth inhibition [POLQ]", "settings": "for IC50: curve of first compound; for viability, T/C: stronger effect = lower value", "in_short": "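Growth inhibition in 3D: complex spheroids (tumor PDC, HUVEC, MSC) treated with POLQ inhibitor combinations; where Cmax unknown, highest tested concentration 10 microM, except SN-38 at 1 microM.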", "key": {"[1]": {"settings": "second compound 0.0316 µM, first compound 0.0316 µM"}, "[2]": {"settings": "second compound 0.0316 µM, first compound 0.1 µM"}, "[3]": {"settings": "second compound 0.0316 µM, first compound 0.316 µM"}, "[4]": {"settings": "second compound 0.0316 µM, first compound 1 µM"}, "[5]": {"settings": "second compound 0.0316 µM, first compound 3.16 µM"}, "[6]": {"settings": "second compound 0.0316 µM, first compound 10 µM"}, "[7]": {"settings": "second compound 0.1 µM, first compound 0.0316 µM"}, "[8]": {"settings": "second compound 0.1 µM, first compound 0.1 µM"}, "[9]": {"settings": "second compound 0.1 µM, first compound 0.316 µM"}, "[10]": {"settings": "second compound 0.1 µM, first compound 1 µM"}, "[11]": {"settings": "second compound 0.1 µM, first compound 3.16 µM"}, "[12]": {"settings": "second compound 0.1 µM, first compound 10 µM"}, "[13]": {"settings": "second compound 0.316 µM, first compound 0.0316 µM"}, "[14]": {"settings": "second compound 0.316 µM, first compound 0.1 µM"}, "[15]": {"settings": "second compound 0.316 µM, first compound 0.316 µM"}, "[16]": {"settings": "second compound 0.316 µM, first compound 1 µM"}, "[17]": {"settings": "second compound 0.316 µM, first compound 3.16 µM"}, "[18]": {"settings": "second compound 0.316 µM, first compound 10 µM"}, "[19]": {"settings": "second compound 1 µM, first compound 0.0316 µM"}, "[20]": {"settings": "second compound 1 µM, first compound 0.1 µM"}, "[21]": {"settings": "second compound 1 µM, first compound 0.316 µM"}, "[22]": {"settings": "second compound 1 µM, first compound 1 µM"}, "[23]": {"settings": "second compound 1 µM, first compound 3.16 µM"}, "[24]": {"settings": "second compound 1 µM, first compound 10 µM"}, "[25]": {"settings": "second compound 3.16 µM, first compound 0.0316 µM"}, "[26]": {"settings": "second compound 3.16 µM, first compound 0.1 µM"}, "[27]": {"settings": "second compound 3.16 µM, first compound 0.316 µM"}, "[28]": {"settings": "second compound 3.16 µM, first compound 1 µM"}, "[29]": {"settings": "second compound 3.16 µM, first compound 3.16 µM"}, "[30]": {"settings": "second compound 3.16 µM, first compound 10 µM"}, "[31]": {"settings": "second compound 10 µM, first compound 0.0316 µM"}, "[32]": {"settings": "second compound 10 µM, first compound 0.1 µM"}, "[33]": {"settings": "second compound 10 µM, first compound 0.316 µM"}, "[34]": {"settings": "second compound 10 µM, first compound 1 µM"}, "[35]": {"settings": "second compound 10 µM, first compound 3.16 µM"}, "[36]": {"settings": "second compound 10 µM, first compound 10 µM"}}, "data": [{"compound": "O=C(c1cc(Cc2n[nH]c(=O)c3ccccc23)ccc1F)N1CCN(C(=O)C2CC2)CC1", "note": "+ Nc1ccc(C#CCN(C(=O)Cc2ncc(C(F)(F)F)cc2C(F)(F)F)c2ccc(F)cc2)nn1;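 further: spheroids exposed to the agents for one week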;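 on viability, T/C: 100% = DMSO vehicle control wells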", "values": [{"measurement": "IC50", "setting": "second compound 0.0316 µM", "result": "> 10", "unit": "µM"}, {"measurement": "IC50", "setting": "second compound 0.1 µM", "result": "> 10", "unit": "µM"}, {"measurement": "IC50", "setting": "second compound 0.316 µM", "result": "> 10", "unit": "µM"}, {"measurement": "IC50", "setting": "second compound 1 µM", "result": "> 10", "unit": "µM"}, {"measurement": "IC50", "setting": "second compound 3.16 µM", "result": "> 10", "unit": "µM"}, {"measurement": "IC50", "setting": "second compound 10 µM", "result": "> 10", "unit": "µM"}, {"measurement": "viability, T/C", "setting": "[1]", "result": 107, "unit": "%"}, {"measurement": "viability, T/C", "setting": "[2]", "result": 97.6, "unit": "%"}, {"measurement": "viability, T/C", "setting": "[3]", "result": 99.4, "unit": "%"}, {"measurement": "viability, T/C", "setting": "[4]", "result": 101, "unit": "%"}, {"measurement": "viability, T/C", "setting": "[5]", "result": 102, "unit": "%"}, {"measurement": "viability, T/C", "setting": "[6]", "result": 96.7, "unit": "%"}, {"measurement": "viability, T/C", "setting": "[7]", "result": 104, "unit": "%"}, {"measurement": "viability, T/C", "setting": "[8]", "result": 103, "unit": "%"}, {"measurement": "viability, T/C", "setting": "[9]", "result": 100, "unit": "%"}, {"measurement": "viability, T/C", "setting": "[10]", "result": 98, "unit": "%"}, {"measurement": "viability, T/C", "setting": "[11]", "result": 101, "unit": "%"}, {"measurement": "viability, T/C", "setting": "[12]", "result": 95, "unit": "%"}, {"measurement": "viability, T/C", "setting": "[13]", "result": 104, "unit": "%"}, {"measurement": "viability, T/C", "setting": "[14]", "result": 99.5, "unit": "%"}, {"measurement": "viability, T/C", "setting": "[15]", "result": 101, "unit": "%"}, {"measurement": "viability, T/C", "setting": "[16]", "result": 101, "unit": "%"}, {"measurement": "viability, T/C", "setting": "[17]", "result": 102, "unit": "%"}, {"measurement": "viability, T/C", "setting": "[18]", "result": 97.1, "unit": "%"}, {"measurement": "viability, T/C", "setting": "[19]", "result": 99, "unit": "%"}, {"measurement": "viability, T/C", "setting": "[20]", "result": 105, "unit": "%"}, {"measurement": "viability, T/C", "setting": "[21]", "result": 101, "unit": "%"}, {"measurement": "viability, T/C", "setting": "[22]", "result": 96.2, "unit": "%"}, {"measurement": "viability, T/C", "setting": "[23]", "result": 100, "unit": "%"}, {"measurement": "viability, T/C", "setting": "[24]", "result": 100, "unit": "%"}, {"measurement": "viability, T/C", "setting": "[25]", "result": 101, "unit": "%"}, {"measurement": "viability, T/C", "setting": "[26]", "result": 100, "unit": "%"}, {"measurement": "viability, T/C", "setting": "[27]", "result": 99.2, "unit": "%"}, {"measurement": "viability, T/C", "setting": "[28]", "result": 98.6, "unit": "%"}, {"measurement": "viability, T/C", "setting": "[29]", "result": 97.5, "unit": "%"}, {"measurement": "viability, T/C", "setting": "[30]", "result": 101, "unit": "%"}, {"measurement": "viability, T/C", "setting": "[31]", "result": 95.6, "unit": "%"}, {"measurement": "viability, T/C", "setting": "[32]", "result": 96.9, "unit": "%"}, {"measurement": "viability, T/C", "setting": "[33]", "result": 88.8, "unit": "%"}, {"measurement": "viability, T/C", "setting": "[34]", "result": 91.9, "unit": "%"}, {"measurement": "viability, T/C", "setting": "[35]", "result": 94.2, "unit": "%"}, {"measurement": "viability, T/C", "setting": "[36]", "result": 90, "unit": "%"}]}, {"compound": "O=c1[nH]cc(F)c(=O)[nH]1", "note": "+ Nc1ccc(C#CCN(C(=O)Cc2ncc(C(F)(F)F)cc2C(F)(F)F)c2ccc(F)cc2)nn1", "values": [{"measurement": "IC50", "setting": "second compound 0.0316 µM", "result": 5.83, "unit": "µM"}, {"measurement": "IC50", "setting": "second compound 0.1 µM", "result": 5.94, "unit": "µM"}, {"measurement": "IC50", "setting": "second compound 0.316 µM", "result": 5.66, "unit": "µM"}, {"measurement": "IC50", "setting": "second compound 1 µM", "result": 5.75, "unit": "µM"}, {"measurement": "IC50", "setting": "second compound 3.16 µM", "result": 5.48, "unit": "µM"}, {"measurement": "IC50", "setting": "second compound 10 µM", "result": 5.32, "unit": "µM"}, {"measurement": "viability, T/C", "setting": "[1]", "result": 103, "unit": "%"}, {"measurement": "viability, T/C", "setting": "[2]", "result": 105, "unit": "%"}, {"measurement": "viability, T/C", "setting": "[3]", "result": 105, "unit": "%"}, {"measurement": "viability, T/C", "setting": "[4]", "result": 103, "unit": "%"}, {"measurement": "viability, T/C", "setting": "[5]", "result": 79.9, "unit": "%"}, {"measurement": "viability, T/C", "setting": "[6]", "result": 23.6, "unit": "%"}, {"measurement": "viability, T/C", "setting": "[7]", "result": 106, "unit": "%"}, {"measurement": "viability, T/C", "setting": "[8]", "result": 103, "unit": "%"}, {"measurement": "viability, T/C", "setting": "[9]", "result": 104, "unit": "%"}, {"measurement": "viability, T/C", "setting": "[10]", "result": 102, "unit": "%"}, {"measurement": "viability, T/C", "setting": "[11]", "result": 80.7, "unit": "%"}, {"measurement": "viability, T/C", "setting": "[12]", "result": 24.6, "unit": "%"}, {"measurement": "viability, T/C", "setting": "[13]", "result": 104, "unit": "%"}, {"measurement": "viability, T/C", "setting": "[14]", "result": 104, "unit": "%"}, {"measurement": "viability, T/C", "setting": "[15]", "result": 104, "unit": "%"}, {"measurement": "viability, T/C", "setting": "[16]", "result": 99.6, "unit": "%"}, {"measurement": "viability, T/C", "setting": "[17]", "result": 76.8, "unit": "%"}, {"measurement": "viability, T/C", "setting": "[18]", "result": 23.8, "unit": "%"}, {"measurement": "viability, T/C", "setting": "[19]", "result": 103, "unit": "%"}, {"measurement": "viability, T/C", "setting": "[20]", "result": 98.5, "unit": "%"}, {"measurement": "viability, T/C", "setting": "[21]", "result": 103, "unit": "%"}, {"measurement": "viability, T/C", "setting": "[22]", "result": 102, "unit": "%"}, {"measurement": "viability, T/C", "setting": "[23]", "result": 82.4, "unit": "%"}, {"measurement": "viability, T/C", "setting": "[24]", "result": 19.8, "unit": "%"}, {"measurement": "viability, T/C", "setting": "[25]", "result": 99.8, "unit": "%"}, {"measurement": "viability, T/C", "setting": "[26]", "result": 103, "unit": "%"}, {"measurement": "viability, T/C", "setting": "[27]", "result": 100, "unit": "%"}, {"measurement": "viability, T/C", "setting": "[28]", "result": 102, "unit": "%"}, {"measurement": "viability, T/C", "setting": "[29]", "result": 75.7, "unit": "%"}, {"measurement": "viability, T/C", "setting": "[30]", "result": 21.9, "unit": "%"}, {"measurement": "viability, T/C", "setting": "[31]", "result": 98.6, "unit": "%"}, {"measurement": "viability, T/C", "setting": "[32]", "result": 101, "unit": "%"}, {"measurement": "viability, T/C", "setting": "[33]", "result": 100, "unit": "%"}, {"measurement": "viability, T/C", "setting": "[34]", "result": 96.6, "unit": "%"}, {"measurement": "viability, T/C", "setting": "[35]", "result": 77.4, "unit": "%"}, {"measurement": "viability, T/C", "setting": "[36]", "result": 17.3, "unit": "%"}]}]}
